In patent US20070043024A1, “Azacyclic compounds as inhibitors of sensory neurone specific channels” (priority 2003, published 2007):
Like-named read-outs stand apart in the source and are kept apart here.

Target: T1, human Nav1.8 (hNav1.8) ion channel (Homo sapiens, UniProt Q9Y5Y9)
T1 construct: expressed in transfected cells
Assay: Inhibition of human Nav1.8 stably expressed in SH-SY-5Y cells (membrane potential dye fluorescence assay)
Format: cell-based

[1] = Table 1, SH-SY-5Y hNav1.8 cells, inhibition of membrane depolarisation, FLIPR membrane potential dye, 250 nM TTX, test concentration range 100 μM-0.05 μM, read-out: IC50
[2] = Table 2 (compound numbers of the list in the description), SH-SY-5Y hNav1.8 cells, inhibition of membrane depolarisation, FLIPR membrane potential dye, 250 nM TTX, test concentration range 100 μM-0.05 μM, read-out: IC50

T1 sequence (Q9Y5Y9 whole entry): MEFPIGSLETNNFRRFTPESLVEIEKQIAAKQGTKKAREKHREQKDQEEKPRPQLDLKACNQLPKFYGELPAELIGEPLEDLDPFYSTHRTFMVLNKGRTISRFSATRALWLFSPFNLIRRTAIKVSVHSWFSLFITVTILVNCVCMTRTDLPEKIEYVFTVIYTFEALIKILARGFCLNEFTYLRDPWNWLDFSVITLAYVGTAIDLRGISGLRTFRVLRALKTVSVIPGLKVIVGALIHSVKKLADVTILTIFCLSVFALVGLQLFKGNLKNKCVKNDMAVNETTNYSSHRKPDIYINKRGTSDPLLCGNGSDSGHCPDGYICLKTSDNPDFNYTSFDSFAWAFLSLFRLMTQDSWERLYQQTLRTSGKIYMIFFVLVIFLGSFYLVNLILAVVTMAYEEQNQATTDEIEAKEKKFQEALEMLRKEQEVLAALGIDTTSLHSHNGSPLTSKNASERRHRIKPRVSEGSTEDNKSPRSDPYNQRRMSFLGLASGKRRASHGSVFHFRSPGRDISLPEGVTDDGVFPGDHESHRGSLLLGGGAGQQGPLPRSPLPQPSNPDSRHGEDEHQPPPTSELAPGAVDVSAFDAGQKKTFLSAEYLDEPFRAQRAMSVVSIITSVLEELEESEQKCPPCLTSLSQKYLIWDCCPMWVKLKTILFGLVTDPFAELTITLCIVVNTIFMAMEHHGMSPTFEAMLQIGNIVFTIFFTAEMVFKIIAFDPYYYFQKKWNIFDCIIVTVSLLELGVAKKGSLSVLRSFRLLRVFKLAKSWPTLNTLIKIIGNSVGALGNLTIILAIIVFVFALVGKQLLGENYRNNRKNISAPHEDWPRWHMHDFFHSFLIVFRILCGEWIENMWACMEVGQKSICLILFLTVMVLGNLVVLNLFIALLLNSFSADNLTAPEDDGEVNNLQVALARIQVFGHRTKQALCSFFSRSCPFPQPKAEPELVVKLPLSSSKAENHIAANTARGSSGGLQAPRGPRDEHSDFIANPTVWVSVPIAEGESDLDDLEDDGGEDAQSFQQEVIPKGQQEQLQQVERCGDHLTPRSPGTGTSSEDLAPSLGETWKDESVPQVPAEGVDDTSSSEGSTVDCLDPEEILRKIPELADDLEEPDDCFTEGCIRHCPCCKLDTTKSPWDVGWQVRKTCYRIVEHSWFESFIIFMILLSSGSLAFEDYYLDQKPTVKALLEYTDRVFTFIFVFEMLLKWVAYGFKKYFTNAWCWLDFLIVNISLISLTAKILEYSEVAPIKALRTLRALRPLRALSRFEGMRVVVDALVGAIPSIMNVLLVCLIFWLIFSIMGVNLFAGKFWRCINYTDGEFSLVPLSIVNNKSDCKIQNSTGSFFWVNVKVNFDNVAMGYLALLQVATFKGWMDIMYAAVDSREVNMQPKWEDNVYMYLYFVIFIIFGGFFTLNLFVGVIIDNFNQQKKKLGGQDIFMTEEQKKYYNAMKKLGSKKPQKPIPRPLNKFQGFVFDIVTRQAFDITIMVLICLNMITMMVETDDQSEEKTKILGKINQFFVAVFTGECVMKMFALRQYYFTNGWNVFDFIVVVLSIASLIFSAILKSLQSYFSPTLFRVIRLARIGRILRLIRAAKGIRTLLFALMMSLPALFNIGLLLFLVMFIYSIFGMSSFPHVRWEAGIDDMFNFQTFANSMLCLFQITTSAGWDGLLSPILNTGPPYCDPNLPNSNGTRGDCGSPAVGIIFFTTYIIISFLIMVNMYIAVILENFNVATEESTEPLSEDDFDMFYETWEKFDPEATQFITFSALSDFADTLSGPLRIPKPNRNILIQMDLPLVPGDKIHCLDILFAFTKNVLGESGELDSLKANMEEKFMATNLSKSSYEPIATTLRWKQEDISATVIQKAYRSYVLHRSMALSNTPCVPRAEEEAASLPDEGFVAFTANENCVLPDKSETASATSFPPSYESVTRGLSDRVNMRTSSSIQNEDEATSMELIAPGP

O=C(CN1CCc2ccccc2C1)N1CCN(C(c2ccc(F)cc2)c2ccc(F)cc2)CC1 [Example 65, 1-{4-[Bis-(4-fluoro-phenyl)-methyl]-piperazin-1-yl}-2-(3,4-dihydro-1H-isoquinolin-2-yl)-ethanone] gave an IC50 [1] of 5640 nM.

CC(C)(C)C1COc2ccccc2N1C(=O)CN1CCc2cccc(O)c2C1 (stereo not shown) [Compound 211, 1-(3-tert-Butyl-2,3-dihydro-benzo[1,4]oxazin-4-yl)-2-(8-hydroxy-3,4-dihydro-1H-isoquinolin-2-yl)-ethanone] gave an IC50 [2] of 3030 nM.

For COc1cccc2c1CN(CC(=O)NC(c1ccc(F)cc1)c1ccc(F)cc1)CC2 [Compound 120, N-[Bis-(4-fluoro-phenyl)-methyl]-2-(8-methoxy-3,4-dihydro-1H-isoquinolin-2-yl)-acetamide], the IC50 [2] was 3340 nM.

In the case of Nc1cccc2c1CN(CCCC(c1ccc(F)cc1)c1ccc(F)cc1)C2 [Compound 102, 2-[4,4-Bis-(4-fluoro-phenyl)-butyl]-2,3-dihydro-1H-isoindol-4ylamine], the IC50 [2] is reported as 860 nM.

Molecule COc1cccc2c1CN(CC(=O)N1c3ccccc3[S+]([O-])c3ccccc31)CC2 [Compound 143, 2-(8-Methoxy-3,4-dihydro-1H-isoquinolin-2-yl)-1-(5-oxo-5H-5lambda*4*-phenothiazin-10-yl)-ethanone] has an IC50 [2] of 9590 nM.

Work on COc1cccc2c1CN(CC(=O)NCCC(c1ccccc1)c1ccccc1)C2 [Compound 88, N-(3,3-diphenyl-propyl)-2-(4-methoxy-1,3-dihydro-isoindol-2-yl)-acetamide] yielded an IC50 [2] of 2090 nM.

O=C(CC(c1ccc(F)cc1)c1ccc(F)cc1)N1CCc2ccccc2C1 [Example 30] was tested, and the IC50 [1] was 1590 nM.

In the case of COc1cccc2c1CN(CC(=O)N1CC(c3nnc(C)o3)Oc3ccccc31)CC2 (stereo not shown) [Compound 187, 2-(8-Methoxy-3,4-dihydro-1H-isoquinolin-2-yl)-1-[2-(5-methyl-[1,3,4]oxadiazol-2-yl)-2,3-dihydro-benzo[1,4]oxazin-4-yl]-ethanone], the IC50 [2] is reported as 19100 nM.

Molecule COc1cccc2c1CN(C(=O)CNCC(c1ccccc1)c1ccccc1)CC2 [Example 39, 2-(2,2-Diphenyl-ethylamino)-1-(8-methoxy-3,4-dihydro-1H-isoquinolin-2-yl)-ethanone] has an IC50 [1] of 450 nM.

Molecule COc1cc2c(cc1OC)CN(CC(=O)N1c3ccccc3Sc3ccc(Cl)cc31)CC2 [Compound 153, 1-(2-Chloro-phenothiazin-10-yl)-2-(6,7-dimethoxy-3,4-dihydro-1H-isoquinolin-2-yl)-ethanone] has an IC50 [2] of 5310 nM.

COc1cc2c(cc1OC)CN(CCNC(=S)NC(c1ccccc1)c1ccccc1)CC2 [Compound 134, 1-Benzhydryl-3-[2-(6,7-dimethoxy-3,4-dihydro-1H-isoquinolin-2-yl)-ethyl]-thiourea] was tested, and the IC50 [2] was 770 nM.

In the case of Oc1cccc2c1CN(Cc1n[nH]nc1-c1ccccc1)CC2 [Example 45, 2-(5-Phenyl-2H-[1,2,3]triazol-4-ylmethyl)-1,2,3,4-tetrahydro-isoquinolin-8-ol], the IC50 [1] is reported as 7210 nM.

COc1cccc2c1CN(CC(=O)NCCSC(c1ccccc1)c1ccccc1)CC2 [Compound 96, N-(2-Benzhydrylsulfanyl-ethyl)-2-(8-methoxy-3,4-dihydro-1H-isoquinolin-2-yl)-acetamide] gave an IC50 of 1110 nM.

COc1cccc2c1CN(CC(=O)N1CCN(C(c3ccccc3)c3ccccc3)CC1)CC2 [Example 62, 1-(4-benzhydryl-piperazin-1-yl)-2-(8-methoxy-3,4-dihydro-1H-isoquinolin-2-yl)-ethanone] was tested, and the IC50 [1] was 5630 nM.

With COc1cccc2c1CN(CC(=O)N1CCN(C(c3ccc(F)cc3)c3ccc(F)cc3)CC1)CC2 [Example 63, 1-{4-[Bis-(4-fluoro-phenyl)-methyl]-piperazin-1-yl}-2-(8-methoxy-3,4-dihydro-1H-isoquinolin-2-yl)-ethanone] the IC50 [1] was 15800 nM.

O=C(NCCN1CCc2cccnc2C1)N1c2ccccc2Oc2ccccc21 [Compound 201, Phenoxazine-10-carboxylic acid [2-(5,8-dihydro-6H-[1,7]naphthyridin-7-yl)-ethyl]-amide] gave an IC50 [2] of 6090 nM.

Molecule COc1cccc2c1CN(CCCC(c1ccc(F)cc1)c1ccc(F)cc1)CC2 [Example 10, 2-[4,4-Bis-(4-fluoro-phenyl)-butyl]-8-methoxy-1,2,3,4-tetrahydro-isoquinoline] has an IC50 [1] of 480 nM.

Molecule COc1ccc2c(c1)CCCN(CC(=O)NCC(c1ccccc1)c1ccccc1)C2 [Compound 84, N-(2,2-diphenyl-ethyl)-2-(7-methoxy-1,3,4,5-tetrahydro-benzo[c]azepin-2-yl)-acetamide] has an IC50 [2] of 400 nM.

In the case of COc1ccc2c(c1)CN(CCNCCC(c1ccccc1)c1ccccc1)CC2 [Example 89, (3,3-Diphenyl-propyl)-[2-(7-methoxy-3,4-dihydro-1H-isoquinolin-2-yl)-ethyl]amine], the IC50 [1] is reported as 490 nM.

O=C(CON=C(c1ccccc1)c1ccccc1)N1CCc2ccccc2C1 [Example 42, 2-Benzhydrylideneaminooxy-1-(3,4-dihydro-1H-isoquinoline-2-yl)-ethanone] was tested, and the IC50 [1] was 1050 nM.

COc1cccc2c1CN(CC(=O)N1CCOc3ccccc31)CC2 [Compound 192, 1-(2,3-Dihydro-benzo[1,4]oxazin-4-yl)-2-(8-methoxy-3,4-dihydro-1H-isoquinolin-2-yl)-ethanone] was tested, and the IC50 [2] was 9060 nM.

Work on COc1cc2c(cc1OC)CN(CCC(=O)NCCC(c1ccccc1)c1ccccc1)CC2 [Compound 125, 3-(6,7-Dimethoxy-3,4-dihydro-1H-isoquinolin-2-yl)-N-(3,3-diphenyl-propyl)-propionamide] yielded an IC50 [2] of 380 nM.

CCC1COc2ccccc2N1C(=O)CN1CCc2cccc(OC)c2C1 (stereo not shown) [Compound 208, 1-(3-Ethyl-2,3-dihydro-benzo[1,4]oxazin-4-yl)-2-(8-methoxy-3,4-dihydro-1H-isoquinolin-2-yl)-ethanone] showed an IC50 [2] of 1680 nM.

COc1cc2c(cc1OC)CN(CC(=O)NCCCC(c1ccccc1)c1ccccc1)CC2 [Compound 124, 2-(Dimethoxy-3,4-dihydro-1H-isoquinolin-2-yl)-N-(4,4-diphenyl-butyl)-acetamide] gave an IC50 [2] of 590 nM.

In the case of O=C(CN1CCc2ccccc2C1)N(Cc1ccccc1)c1ccccc1 [Example 17, N-Benzyl-2-(3,4-dihydro-1H-isoquinolin-2-yl)-N-phenyl-acetamide], the IC50 [1] is reported as 1250 nM.

With COc1cccc2c1CN(CC(=O)N1c3ccccc3Sc3ccccc31)CC2 [Compound 140, 2-(8-Methoxy-3,4-dihydro-1H-isoquinolin-2-yl)-1-phenothiazin-10-yl-ethanone] the IC50 [2] was 2330 nM.

In the case of c1ccc(CN(CCN2CCc3ccccc3C2)Cc2ccccc2)cc1 [Example 47, Dibenzyl-[2-(3,4-dihydro-1H-isoquinolin-2-yl)-ethyl]-amine], the IC50 [1] is reported as 470 nM.

For COc1cc2c(cc1OC)CN(CC(=O)N1c3ccccc3Sc3ccc(C(F)(F)F)cc31)CC2 [Compound 154, 2-(6,7-Dimethoxy-3,4-dihydro-1H-isoquinolin-2-yl)-1-(2-trifluoromethyl-phenothiazin-10-yl)-ethanone], the IC50 [2] was 12400 nM.

Nc1cccc2c1CN(CC(=O)NCCCC(c1ccccc1)c1ccccc1)CC2 [Compound 109, 2-(8-Amino-3,4-dihydro-1H-isoquinolin-2-yl)-N-(4,4-diphenyl-butyl)-acetamide] showed an IC50 [2] of 1800 nM.

COc1cc2c(cc1OC)CN(CC(=O)N1c3ccccc3S(=O)(=O)c3ccccc31)CC2 [Compound 151, 2-(6,7-Dimethoxy-3,4-dihydro-1H-isoquinolin-2-yl)-1-(5,5-dioxo-5H-5lambda*6*-phenothiazin-10-yl)-ethanone] showed an IC50 [2] of 7440 nM.

In the case of COc1cccc2c1CN(C(=O)CON=C(c1ccccc1)c1ccccc1)CC2 [Example 43, 2-Benzhydrylideneaminooxy-1-(8-methoxy-3,4-dihydro-1H-isoquinoline-2-yl)-ethanone], the IC50 [1] is reported as 1670 nM.

COc1cccc2c1CN(CC(=O)N1c3ccccc3OCC1c1ccc(NC(C)=O)cc1)CC2 (stereo not shown) [Compound 214, N-(4-{4-[2-(8-Methoxy-3,4-dihydro-1H-isoquinolin-2-yl)-acetyl]-3,4-dihydro-2H-benzo[1,4]oxazin-3-yl}-phenyl)-acetamide] was tested, and the IC50 [2] was 6360 nM.

Molecule COc1cc2c(cc1OC)CN(CC(=O)N1c3ccccc3Sc3ccccc31)CC2 [Compound 152, 2-(6,7-Dimethoxy-3,4-dihydro-1H-isoquinolin-2-yl)-1-phenothiazin-10-yl-ethanone] has an IC50 [2] of 3030 nM.

With Cc1cc(C(C)(CCCN2CCc3cccc(O)c3C2)c2cc(C)c(O)c(C)c2)cc(C)c1O [Example 97, 2-[4,4-Bis-(4-hydroxy-3,5-dimethyl-phenyl)-pentyl]-1,2,3,4-tetrahydroisoquinolin-8-ol] the IC50 [1] was 1060 nM.

Work on CS(=O)(=O)Nc1cccc2c1CN(CC(=O)NCCCC(c1ccccc1)c1ccccc1)CC2 [Compound 117, N-(4,4-Diphenyl-butyl)-2-(8-methanesulfonylamino-3,4-dihydro-1H-isoquinolin-2-yl)-acetamide] yielded an IC50 [2] of 1360 nM.

Molecule O=C(CN1CCc2cccc(O)c2C1)N1c2ccccc2Sc2ccccc21 [Compound 139, 2-(8-Hydroxy-3,4-dihydro-1H-isoquinolin-2-yl)-1-phenothiazin-10-yl-ethanone] has an IC50 [2] of 1250 nM.

COc1cccc2c1CN(CC(=O)N1c3ccccc3Sc3ccc(Cl)cc31)CC2 [Compound 142, 1-(2-Chloro-phenothiazin-10-yl)-2-(8-methoxy-3,4-dihydro-1H-isoquinolin-2-yl)-ethanone] showed an IC50 [2] of 2090 nM.

COc1cccc2c1CN(CC(=O)N1Cc3ccccc3Oc3ccccc31)CC2 [Compound 207, 1-(11H-Dibenzo[b,f][1,4]oxazepin-10-yl)-2-(8-methoxy-3,4-dihydro-1H-isoquinolin-2-yl)-ethanone] was tested, and the IC50 [2] was 940 nM.

With O=C(CN1CCc2cccnc2C1)N(c1ccccc1)c1ccccc1 [Compound 181, 2-(5,8-Dihydro-6H-[1,7]naphthyridin-7-yl)-N,N-diphenyl-acetamide] the IC50 [2] was 20400 nM.

O=C(CN1Cc2ccccc2C1)N1c2ccccc2Oc2ccccc21 [Compound 178, 2-(1,3-Dihydro-isoindol-2-yl)-1-phenoxazin-10-yl-ethanone] gave an IC50 [2] of 620 nM.
